In ChEMBL document CHEMBL4038272, “Synthesis and biological evaluation of novel podophyllotoxin-NSAIDs conjugates as multifunctional anti-MDR agents against resistant human hepatocellular carcinoma Bel-7402/5-FU cells” (Eur J Med Chem, 2017):
Active and inactive are the calls of the source. The rule behind the calls is not given here.

How the values were obtained:
[1] = system: Bel7402/5-FU; experiment: Effect on cyclinB1 expression in human Bel7402/5-FU cells assessed as ratio of cyclinB1 to beta-actin level at 10 uM after 48 hrs by Western blot analysis (reference value: 0.53); format: functional
[2] = target: Signal transducer and activator of transcription 3 (Homo sapiens) (UniProt P40763); experiment: Effect on STAT3 phosphorylation in human Bel7402/5-FU cells assessed as ratio of phosphorylated STAT3 to beta-actin level at 10 uM after 48 hrs by Western blot analysis (reference value: 0.3); format: cell-based
[3] = system: Bel7402/5-FU; experiment: Effect on MRP1 expression in human Bel7402/5-FU cells assessed as ratio of MRP1 to beta-actin level at 10 uM after 48 hrs by Western blot analysis (reference value: 0.58); format: functional
[4] = system: Bel7402/5-FU; experiment: Induction of apoptosis in human Bel7402/5-FU cells assessed as early apoptotic cells at 10 uM after 48 hrs by Annexin V-APC/7-AAD staining based flow cytometry (reference value: 5.24%); format: functional
[5] = system: Bel7402/5-FU; experiment: Reduction in microtubule density in human Bel7402/5-FU cells at 10 uM after 24 to 48 hrs by DAPI staining based immunofluorescence microscopic method; format: functional, cell-based
[6] = system: Bel7402/5-FU; experiment: Effect on COX1 expression in human Bel7402/5-FU cells assessed as ratio of COX1 to beta-actin level at 10 uM after 48 hrs by Western blot analysis (reference value: 0.48); format: functional
[7] = Resistant factor, ratio of IC50 for human Bel7402/5-FU cells to IC50 for human Bel7402 cells; format: functional
[8] = system: Bel7402/5-FU; experiment: Effect on CDK2 expression in human Bel7402/5-FU cells assessed as ratio of CDK2 to beta-actin level at 10 uM after 48 hrs by Western blot analysis (reference value: 0.43); format: functional
[9] = system: Bel7402/5-FU; experiment: Cell cycle arrest in human Bel7402/5-FU cells assessed as accumulation at G1 phase at 10 uM after 48 hrs by propidium iodide staining based flow cytometry (reference value: 52.21%); format: functional
[10] = system: Bel7402/5-FU; experiment: Induction of apoptosis in human Bel7402/5-FU cells assessed as morphological changes at 10 uM after 24 hrs by Hoechst 33342 staining based fluorescent microscopic method; format: functional, cell-based
[11] = system: Bel7402/5-FU; experiment: Induction of apoptosis in human Bel7402/5-FU cells assessed as ratio of cleaved PARP to beta-actin level at 10 uM after 48 hrs by Western blot analysis (reference value: 0.2); format: functional
[12] = system: Bel7402/5-FU; experiment: Cell cycle arrest in human Bel7402/5-FU cells assessed as accumulation at G2 phase at 10 uM after 48 hrs by propidium iodide staining based flow cytometry (reference value: 35.16%); format: functional
[13] = system: Bel7402/5-FU; experiment: Effect on COX2 expression in human Bel7402/5-FU cells assessed as ratio of COX2 to beta-actin level at 10 uM after 48 hrs by Western blot analysis (reference value: 0.36); format: functional
[14] = system: Bel7402/5-FU; experiment: Induction of apoptosis in human Bel7402/5-FU cells at 10 uM after 24 hrs by Hoechst 33342 staining based fluorescent microscopic method; format: functional, cell-based
[15] = system: Bel7402/5-FU; experiment: Induction of apoptosis in human Bel7402/5-FU cells assessed as late apoptotic cells at 10 uM after 48 hrs by Annexin V-APC/7-AAD staining based flow cytometry (reference value: 3%); format: functional
[16] = target: RAC-alpha serine/threonine-protein kinase (Homo sapiens) (UniProt P31749); experiment: Effect on AKT phosphorylation in human Bel7402/5-FU cells assessed as ratio of phosphorylated AKT to beta-actin level at 10 uM after 48 hrs by Western blot analysis (reference value: 0.39); format: cell-based
[17] = system: L02; experiment: Antiproliferative activity against human LO2 cells after 72 hrs by CCK-8 assay; format: cell-based; conditions: L02, 72 h
[18] = system: Bel7402/5-FU; experiment: Induction of apoptosis in human Bel7402/5-FU cells assessed as ratio of cleaved caspase-8 to beta-actin level at 10 uM after 48 hrs by Western blot analysis (reference value: 0.17); format: functional
[19] = system: Bel7402/5-FU; experiment: Antiproliferative activity against human Bel7402/5-FU cells after 72 hrs by CCK-8 assay; format: functional, cell-based
[20] = system: Bel7402/5-FU; experiment: Effect on iNOS expression in human Bel7402/5-FU cells assessed as ratio of iNOS to beta-actin level at 10 uM after 48 hrs by Western blot analysis (reference value: 0.13); format: functional
[21] = system: Bel7402/5-FU; experiment: Antimigratory activity in human Bel7402/5-FU cells at 10 uM after 24 hrs by wound healing assay; format: functional, cell-based
[22] = system: Bel7402/5-FU; experiment: Induction of apoptosis in human Bel7402/5-FU cells assessed as live cells at 10 uM after 48 hrs by Annexin V-APC/7-AAD staining based flow cytometry (reference value: 91.08%); format: functional
[23] = system: Bel7402/5-FU; experiment: Induction of apoptosis in human Bel7402/5-FU cells assessed as reduction in cell number at 10 uM after 24 hrs by Hoechst 33342 staining based fluorescent microscopic method; format: functional
[24] = system: Bel7402/5-FU; experiment: Effect on E-cadherin expression in human Bel7402/5-FU cells assessed as ratio of E-cadherin to beta-actin level at 10 uM after 48 hrs by Western blot analysis (reference value: 0.2); format: functional
[25] = target: Mitogen-activated protein kinase; ERK1/ERK2 (Homo sapiens) (UniProt P27361+P28482); experiment: Effect on ERK1/2 phosphorylation in human Bel7402/5-FU cells assessed as ratio of phosphorylated ERK1/2 to beta-actin level at 10 uM after 48 hrs by Western blot analysis (reference value: 0.59); format: cell-based
[26] = system: Bel7402/5-FU; experiment: Effect on CDK1 expression in human Bel7402/5-FU cells assessed as ratio of CDK1 to beta-actin level at 10 uM after 48 hrs by Western blot analysis (reference value: 0.33); format: functional
[27] = system: Bel7402/5-FU; experiment: Effect on P-gp expression in human Bel7402/5-FU cells assessed as ratio of P-gp to beta-actin level at 10 uM after 48 hrs by Western blot analysis (reference value: 0.59); format: functional
[28] = system: Bel7402/5-FU; experiment: Induction of apoptosis in human Bel7402/5-FU cells assessed as ratio of cleaved caspase-3 to beta-actin level at 10 uM after 48 hrs by Western blot analysis (reference value: 0.19); format: functional
[29] = system: Bel-7402; experiment: Antiproliferative activity against human Bel7402 cells after 72 hrs by CCK-8 assay; format: functional, cell-based; conditions: Bel-7402, 72 h
[30] = system: Bel7402/5-FU; experiment: Induction of apoptosis in human Bel7402/5-FU cells assessed as ratio of cleaved caspase-9 to beta-actin level at 10 uM after 48 hrs by Western blot analysis (reference value: 0.17); format: functional
[31] = system: Bel7402/5-FU; experiment: Effect on cyclinA expression in human Bel7402/5-FU cells assessed as ratio of cyclinA to beta-actin level at 10 uM after 48 hrs by Western blot analysis (reference value: 0.39); format: functional
[32] = system: Bel7402/5-FU; experiment: Induction of microtubule disruption in human Bel7402/5-FU cells at 10 uM after 24 to 48 hrs by DAPI staining based immunofluorescence microscopic method; format: functional, cell-based
[33] = system: Bel7402/5-FU; experiment: Induction of apoptosis in human Bel7402/5-FU cells assessed as condensed nuclei at 10 uM after 24 hrs by Hoechst 33342 staining based fluorescent microscopic method; format: functional, cell-based
[34] = system: Bel7402/5-FU; experiment: Induction of apoptosis in human Bel7402/5-FU cells assessed as necrotic cells at 10 uM after 48 hrs by Annexin V-APC/7-AAD staining based flow cytometry (reference value: 0.58%); format: functional
[35] = system: Bel7402/5-FU; experiment: Effect on VEGFR2 expression in human Bel7402/5-FU cells assessed as ratio of VEGFR2 to beta-actin level at 10 uM after 48 hrs by Western blot analysis (reference value: 0.25); format: functional
[36] = system: Bel7402/5-FU; experiment: Cell cycle arrest in human Bel7402/5-FU cells assessed as accumulation at S phase at 10 uM after 48 hrs by propidium iodide staining based flow cytometry (reference value: 12.62%); format: functional
[37] = system: Bel7402/5-FU; experiment: Effect on MMP2 expression in human Bel7402/5-FU cells assessed as ratio of MMP2 to beta-actin level at 10 uM after 48 hrs by Western blot analysis (reference value: 0.3); format: functional

Sequence of RAC-alpha serine/threonine-protein kinase (Homo sapiens) (P31749 whole entry): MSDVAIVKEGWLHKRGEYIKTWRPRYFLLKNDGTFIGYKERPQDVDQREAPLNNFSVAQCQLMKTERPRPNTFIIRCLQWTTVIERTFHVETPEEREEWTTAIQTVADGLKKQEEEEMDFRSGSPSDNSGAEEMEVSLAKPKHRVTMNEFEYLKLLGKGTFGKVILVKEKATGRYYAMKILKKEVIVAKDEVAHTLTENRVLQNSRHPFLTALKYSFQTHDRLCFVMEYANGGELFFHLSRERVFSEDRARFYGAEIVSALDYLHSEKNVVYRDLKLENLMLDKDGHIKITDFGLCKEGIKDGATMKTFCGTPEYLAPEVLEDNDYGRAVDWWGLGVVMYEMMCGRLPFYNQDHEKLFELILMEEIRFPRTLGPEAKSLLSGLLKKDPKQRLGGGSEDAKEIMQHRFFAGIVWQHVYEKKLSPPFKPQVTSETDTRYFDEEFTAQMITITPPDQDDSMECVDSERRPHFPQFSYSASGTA
Sequence of Mitogen-activated protein kinase; ERK1/ERK2 (Homo sapiens) (P27361 whole entry, looked up): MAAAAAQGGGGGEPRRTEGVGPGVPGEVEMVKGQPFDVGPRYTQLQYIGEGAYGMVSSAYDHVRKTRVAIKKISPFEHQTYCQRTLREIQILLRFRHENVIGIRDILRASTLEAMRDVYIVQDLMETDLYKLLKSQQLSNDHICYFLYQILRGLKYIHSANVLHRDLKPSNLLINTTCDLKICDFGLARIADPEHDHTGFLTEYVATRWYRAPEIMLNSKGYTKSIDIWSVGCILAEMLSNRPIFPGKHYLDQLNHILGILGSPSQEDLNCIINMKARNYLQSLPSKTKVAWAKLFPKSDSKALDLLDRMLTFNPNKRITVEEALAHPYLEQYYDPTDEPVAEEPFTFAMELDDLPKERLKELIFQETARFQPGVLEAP
Sequence of Mitogen-activated protein kinase; ERK1/ERK2 (Homo sapiens) (P28482 whole entry, looked up): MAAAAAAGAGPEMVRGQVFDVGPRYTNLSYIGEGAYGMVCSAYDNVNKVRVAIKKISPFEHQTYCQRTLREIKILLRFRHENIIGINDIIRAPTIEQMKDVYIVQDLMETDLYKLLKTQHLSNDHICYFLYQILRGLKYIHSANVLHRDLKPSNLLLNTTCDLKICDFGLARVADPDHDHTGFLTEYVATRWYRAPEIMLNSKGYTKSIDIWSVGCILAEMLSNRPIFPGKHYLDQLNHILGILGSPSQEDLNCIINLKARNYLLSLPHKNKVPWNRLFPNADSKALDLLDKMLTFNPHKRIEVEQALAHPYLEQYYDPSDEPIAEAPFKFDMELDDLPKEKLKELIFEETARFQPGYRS
Sequence of Signal transducer and activator of transcription 3 (Homo sapiens) (P40763 whole entry): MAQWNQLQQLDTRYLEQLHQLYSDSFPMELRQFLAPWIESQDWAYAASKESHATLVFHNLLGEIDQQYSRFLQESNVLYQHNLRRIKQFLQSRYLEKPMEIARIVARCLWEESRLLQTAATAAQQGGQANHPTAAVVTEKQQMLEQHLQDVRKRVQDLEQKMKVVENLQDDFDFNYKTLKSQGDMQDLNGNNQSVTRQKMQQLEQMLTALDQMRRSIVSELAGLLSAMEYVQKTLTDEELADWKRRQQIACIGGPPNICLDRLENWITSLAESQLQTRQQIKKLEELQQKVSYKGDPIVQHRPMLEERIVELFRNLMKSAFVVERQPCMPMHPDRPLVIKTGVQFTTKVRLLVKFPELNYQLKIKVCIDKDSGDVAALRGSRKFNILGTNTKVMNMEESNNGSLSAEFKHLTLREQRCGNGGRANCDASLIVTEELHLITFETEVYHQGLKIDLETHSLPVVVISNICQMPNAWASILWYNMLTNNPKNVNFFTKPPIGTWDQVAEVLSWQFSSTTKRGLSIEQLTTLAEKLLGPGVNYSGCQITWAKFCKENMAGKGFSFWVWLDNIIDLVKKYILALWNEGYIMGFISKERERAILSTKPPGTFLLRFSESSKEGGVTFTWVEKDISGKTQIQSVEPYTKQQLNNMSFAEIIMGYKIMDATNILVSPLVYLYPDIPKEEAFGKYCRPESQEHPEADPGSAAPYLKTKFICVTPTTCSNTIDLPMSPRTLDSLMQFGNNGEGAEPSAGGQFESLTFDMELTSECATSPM

SMILES: COc1cc([C@@H]2c3cc4c(cc3[C@H](OC(=O)C(C)c3ccc(CC(C)C)cc3)[C@H]3COC(=O)[C@H]23)OCO4)cc(OC)c1OC (some centres not stated)
- Ratio [1]: 0.52
- Ratio [2]: 0.4
- Ratio [3]: 0.7
- Activity [4]: 7.12%
- Activity [5]: Active
- Ratio [6]: 0.46
- Ratio IC50 [7]: 0.54
- Ratio [8]: 0.38
- Activity [9]: 8.88%
- Activity [10]: Active
- Ratio [11]: 0.35
- Activity [12]: 63.78%
- Ratio [13]: 0.43
- Activity [14]: Active
- Activity [15]: 21.24%
- Ratio [16]: 0.42
- IC50 [17]: 7.38 µM
- Ratio [18]: 0.25
- IC50 [19]: 10.3 µM
- Ratio [20]: 0.23
- Activity [21]: Active
- Activity [22]: 62.05%
- Activity [23]: Active
- Ratio [24]: 0.29
- Ratio [25]: 0.55
- Ratio [26]: 0.29
- Ratio [27]: 0.61
- Ratio [28]: 0.33
- IC50 [29]: 18.9 µM
- Ratio [30]: 0.25
- Ratio [31]: 0.36
- Activity [32]: Active
- Activity [33]: Active
- Activity [34]: 9.59%
- Ratio [35]: 0.18
- Activity [36]: 27.34%
- Ratio [37]: 0.21
